Measured values taken from patent publication US8247211B2, “Glycopeptide antibiotics” (American Cyanamid Company, priority 2001, dated 2012).
Converted amounts (≈) assume the structure as drawn.

How the values were obtained:
Assay in all cases: In vitro antibacterial evaluation: minimum inhibitory concentration (MIC), broth dilution method
Format in all cases: cell-based
[1] = system: Enterococcus sp.; conditions: 18 hours at 35° C.
How it was run: (§1)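 An MIC is reported for each organism as the least concentration giving inhibition, using broth dilution over 64-0.06 μg/mL with a 5×10^5 CFU/mL inoculum.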

[2] = system: Escherichia coli; conditions: 18 hours at 35° C.
How it was run: as §1

[3] = system: Staphylococcus sp.
How it was run: as §1

[4] = system: Streptococcus sp.; conditions: 18 hours at 35° C.
How it was run: as §1

[5] = Enterococcus faecalis (ATCC 29212)
[6] = Enterococcus faecalis (GC 2242)
[7] = Enterococcus faecalis (GC 2691)
[8] = Enterococcus faecalis (GC 3059)
[9] = Enterococcus faecalis (GC 4552)
[10] = Enterococcus faecalis (GC 4553)
[11] = Enterococcus faecalis (GC 4554)
[12] = Enterococcus faecalis (GC 6189)
[13] = broth dilution, inoculum 5×10^5 CFU/mL
[14] = Streptococcus agalactiae (GC 4564)
[15] = Streptococcus pneumoniae (ATCC 6301)
[16] = Streptococcus pneumoniae (GC 1894)
[17] = Streptococcus pneumoniae (GC 4565)
[18] = Streptococcus pyogenes (GC 4563)

COc1ccc(COCC2OC(OC3C(CO)OC(Oc4ccc(CC5NC(=O)C(C(C)c6ccccc6)NC(=O)CNC(=O)C(CO)NC(=O)C(C(O)C6CNC(=N)N6C6OC(CO)C(O)C(O)C6O)NC(=O)C(C(O)C6CNC(=N)N6)NC5=O)cc4)C(O)C3O)C(O)C(O)C2O)cc1F (centres unmarked) [Example 237]
MIC Enterococcus avium (GC 4558) ([1]; Enterococcus avium (GC 4558)): 16 µg/mL (≈ 11.2 µM) | MIC Enterococcus faecalis (ATCC 29212) [1, 5]: 16 µg/mL (≈ 11.2 µM) | MIC Enterococcus faecalis (GC 2242) [1, 6]: 16 µg/mL (≈ 11.2 µM) | MIC Enterococcus faecalis (GC 2691) [1, 7]: 16 µg/mL (≈ 11.2 µM) | MIC Enterococcus faecalis (GC 3059) [1, 8]: 32 µg/mL (≈ 22.3 µM) | MIC Enterococcus faecalis (GC 4552) [1, 9]: 16 µg/mL (≈ 11.2 µM) | MIC Enterococcus faecalis (GC 4553) [1, 10]: 16 µg/mL (≈ 11.2 µM) | MIC Enterococcus faecalis (GC 4554) [1, 11]: 32 µg/mL (≈ 22.3 µM) | MIC Enterococcus faecalis (GC 6189) [1, 12]: 16 µg/mL (≈ 11.2 µM) | MIC Enterococcus faecium (GC 2243) ([1]; Enterococcus faecium (GC 2243)): 16 µg/mL (≈ 11.2 µM) | MIC Enterococcus faecium (GC 4556) ([1]; Enterococcus faecium (GC 4556)): 16 µg/mL (≈ 11.2 µM) | MIC Enterococcus faecium (GC 4557) ([1]; Enterococcus faecium (GC 4557)): 4 µg/mL (≈ 2.79 µM) | MIC Enterococcus faecalis (GC 2242) [1, 13]: 16 µg/mL (≈ 11.2 µM) | MIC Enterococcus faecalis (GC 2691) [1, 13]: 16 µg/mL (≈ 11.2 µM) | MIC Enterococcus faecalis (GC 3059) [1, 13]: 32 µg/mL (≈ 22.3 µM) | MIC Escherichia coli (ATCC 25922) [2]: 64 µg/mL (≈ 44.6 µM) | MIC Escherichia coli (GC 4559) [2]: 64 µg/mL (≈ 44.6 µM) | MIC Escherichia coli (GC 4560) [2]: 1 µg/mL (≈ 0.698 µM) | MIC Coagulase Negative Staphylococcus (GC 4547) ([3]; Coagulase Negative Staphylococcus (GC 4547), 18 hours at 35° C.): 2 µg/mL (≈ 1.4 µM) | MIC Coagulase Negative Staphylococcus (GC 4548) ([3]; Coagulase Negative Staphylococcus (GC 4548), 18 hours at 35° C.): 1 µg/mL (≈ 0.698 µM) | MIC Coagulase Negative Staphylococcus (GC 4549) ([3]; Coagulase Negative Staphylococcus (GC 4549), 18 hours at 35° C.): 1 µg/mL (≈ 0.698 µM) | MIC Coagulase Negative Staphylococcus (GC 4551) ([3]; Coagulase Negative Staphylococcus (GC 4551), 18 hours at 35° C.): 4 µg/mL (≈ 2.79 µM) | MIC Coagulase Negative Staphylococcus (GC 6257) ([3]; Coagulase Negative Staphylococcus (GC 6257), 18 hours at 35° C.): 1 µg/mL (≈ 0.698 µM) | MIC Staphylococcus aureus (ATCC 29213) ([3]; Staphylococcus aureus (ATCC 29213), 18 hours at 35° C.): 4 µg/mL (≈ 2.79 µM) | MIC Staphylococcus aureus (GC 1131) ([3]; Staphylococcus aureus (GC 1131), 18 hours at 35° C.): 4 µg/mL (≈ 2.79 µM) | MIC Staphylococcus aureus (GC 3051) ([3]; Staphylococcus aureus (GC 3051), 18 hours at 35° C.): 2 µg/mL (≈ 1.4 µM) | MIC Staphylococcus aureus (GC 3053) ([3]; Staphylococcus aureus (GC 3053), 18 hours at 35° C.): 4 µg/mL (≈ 2.79 µM) | MIC Staphylococcus aureus (GC 4541) ([3]; Staphylococcus aureus (GC 4541), 18 hours at 35° C.): 2 µg/mL (≈ 1.4 µM) | MIC Staphylococcus aureus (GC 4542) ([3]; Staphylococcus aureus (GC 4542), 18 hours at 35° C.): 8 µg/mL (≈ 5.58 µM) | MIC Staphylococcus aureus (GC 4544) ([3]; Staphylococcus aureus (GC 4544), 18 hours at 35° C.): 4 µg/mL (≈ 2.79 µM) | MIC Staphylococcus aureus (GC 4545) ([3]; Staphylococcus aureus (GC 4545), 18 hours at 35° C.): 2 µg/mL (≈ 1.4 µM) | MIC Staphylococcus aureus-SMITH (GC 4543) ([3]; Staphylococcus aureus-SMITH (GC 4543), 18 hours at 35° C.): 2 µg/mL (≈ 1.4 µM) | MIC Staphylococcus haemolyticus (GC 4546) ([3]; Staphylococcus haemolyticus (GC 4546), 18 hours at 35° C.): 1 µg/mL (≈ 0.698 µM) | MIC Streptococcus agalactiae (GC 4564) [4, 14]: 2 µg/mL (≈ 1.4 µM) | MIC Streptococcus pneumoniae (ATCC 6301) [4, 15]: 0.5 µg/mL (≈ 0.349 µM) | MIC Streptococcus pneumoniae (GC 1894) [4, 16]: 0.25 µg/mL (≈ 0.174 µM) | MIC Streptococcus pneumoniae (GC 4565) [4, 17]: 0.5 µg/mL (≈ 0.349 µM) | MIC Streptococcus pyogenes (GC 4563) [4, 18]: 1 µg/mL (≈ 0.698 µM) | MIC Streptococcus agalactiae (GC 4564) [4, 13]: 2 µg/mL (≈ 1.4 µM) | MIC Streptococcus pneumoniae (ATCC 6301) [4, 13]: 0.5 µg/mL (≈ 0.349 µM) | MIC Streptococcus pneumoniae (GC 1894) [4, 13]: 0.25 µg/mL (≈ 0.174 µM) | MIC Streptococcus pneumoniae (GC 4565) [4, 13]: 0.5 µg/mL (≈ 0.349 µM) | MIC Streptococcus pyogenes (GC 4563) [4, 13]: 1 µg/mL (≈ 0.698 µM)

Cc1ccc(Oc2cccc(C3OCC4OC(OC5C(CO)OC(Oc6ccc(CC7NC(=O)C(C(C)c8ccccc8)NC(=O)CNC(=O)C(CO)NC(=O)C(C(O)C8CNC(=N)N8C8OC(CO)C(O)C(O)C8O)NC(=O)C(C(O)C8CNC(=N)N8)NC7=O)cc6I)C(O)C5O)C(O)C(O)C4O3)c2)cc1 (centres unmarked) [Example 197]
MIC Enterococcus avium (GC 4558) ([1]; Enterococcus avium (GC 4558)): 16 µg/mL (≈ 9.9 µM) | MIC Enterococcus faecalis (ATCC 29212) [1, 5]: >64 µg/mL | MIC Enterococcus faecalis (GC 2242) [1, 6]: >64 µg/mL | MIC Enterococcus faecalis (GC 2691) [1, 7]: >64 µg/mL | MIC Enterococcus faecalis (GC 3059) [1, 8]: >64 µg/mL | MIC Enterococcus faecalis (GC 4552) [1, 9]: >64 µg/mL | MIC Enterococcus faecalis (GC 4553) [1, 10]: 64 µg/mL (≈ 39.6 µM) | MIC Enterococcus faecalis (GC 4554) [1, 11]: >64 µg/mL | MIC Enterococcus faecalis (GC 6189) [1, 12]: 64 µg/mL (≈ 39.6 µM) | MIC Enterococcus faecium (GC 2243) ([1]; Enterococcus faecium (GC 2243)): 64 µg/mL (≈ 39.6 µM) | MIC Enterococcus faecium (GC 4556) ([1]; Enterococcus faecium (GC 4556)): >64 µg/mL | MIC Enterococcus faecium (GC 4557) ([1]; Enterococcus faecium (GC 4557)): 8 µg/mL (≈ 4.95 µM) | MIC Enterococcus avium (GC 4558) [1, 13]: 16 µg/mL (≈ 9.9 µM) | MIC Enterococcus faecalis (ATCC 29212) [1, 13]: >64 µg/mL | MIC Enterococcus faecalis (GC 2242) [1, 13]: >64 µg/mL | MIC Enterococcus faecalis (GC 2691) [1, 13]: >64 µg/mL | MIC Enterococcus faecalis (GC 3059) [1, 13]: >64 µg/mL | MIC Enterococcus faecalis (GC 4552) [1, 13]: >64 µg/mL | MIC Enterococcus faecalis (GC 4553) [1, 13]: 64 µg/mL (≈ 39.6 µM) | MIC Enterococcus faecalis (GC 4554) [1, 13]: >64 µg/mL | MIC Enterococcus faecalis (GC 6189) [1, 13]: 64 µg/mL (≈ 39.6 µM) | MIC Enterococcus faecium (GC 2243) [1, 13]: 64 µg/mL (≈ 39.6 µM) | MIC Enterococcus faecium (GC 4556) [1, 13]: >64 µg/mL | MIC Enterococcus faecium (GC 4557) [1, 13]: 8 µg/mL (≈ 4.95 µM) | MIC Escherichia coli (ATCC 25922) [2]: 32 µg/mL (≈ 19.8 µM) | MIC Escherichia coli (GC 4559) [2]: 64 µg/mL (≈ 39.6 µM) | MIC Escherichia coli (GC 4560) [2]: 16 µg/mL (≈ 9.9 µM) | MIC Staphylococcus aureus (ATCC 29213) ([3]; strain ATCC 29213): 32 µg/mL (≈ 19.8 µM) | MIC Staphylococcus aureus (GC 1131) ([3]; strain GC 1131): 16 µg/mL (≈ 9.9 µM) | MIC Staphylococcus aureus (GC 3051) ([3]; strain GC 3051): 64 µg/mL (≈ 39.6 µM) | MIC Staphylococcus aureus (GC 3053) ([3]; strain GC 3053): 64 µg/mL (≈ 39.6 µM) | MIC Staphylococcus aureus (GC 4541) ([3]; strain GC 4541): 16 µg/mL (≈ 9.9 µM) | MIC Staphylococcus aureus (GC 4542) ([3]; strain GC 4542): 64 µg/mL (≈ 39.6 µM) | MIC Staphylococcus aureus-SMITH (GC 4543) ([3]; strain GC 4543): 16 µg/mL (≈ 9.9 µM) | MIC Staphylococcus aureus (GC 4544) ([3]; strain GC 4544): 32 µg/mL (≈ 19.8 µM) | MIC Staphylococcus aureus (GC 4545) ([3]; strain GC 4545): 32 µg/mL (≈ 19.8 µM) | MIC Staphylococcus haemolyticus (GC 4546) ([3]; strain GC 4546): 32 µg/mL (≈ 19.8 µM) | MIC Coagulase Negative Staphylococcus (GC 4547) ([3]; strain GC 4547): 32 µg/mL (≈ 19.8 µM) | MIC Coagulase Negative Staphylococcus (GC 4548) ([3]; strain GC 4548): 8 µg/mL (≈ 4.95 µM) | MIC Coagulase Negative Staphylococcus (GC 4549) ([3]; strain GC 4549): 8 µg/mL (≈ 4.95 µM) | MIC Coagulase Negative Staphylococcus (GC 4551) ([3]; strain GC 4551): 16 µg/mL (≈ 9.9 µM) | MIC Coagulase Negative Staphylococcus (GC 6257) ([3]; strain GC 6257): 4 µg/mL (≈ 2.48 µM) | MIC Streptococcus agalactiae (GC 4564) [4, 14]: 16 µg/mL (≈ 9.9 µM) | MIC Streptococcus pneumoniae (ATCC 6301) [4, 15]: 4 µg/mL (≈ 2.48 µM) | MIC Streptococcus pneumoniae (GC 1894) [4, 16]: 8 µg/mL (≈ 4.95 µM) | MIC Streptococcus pneumoniae (GC 4565) [4, 17]: 8 µg/mL (≈ 4.95 µM) | MIC Streptococcus pyogenes (GC 4563) [4, 18]: 16 µg/mL (≈ 9.9 µM) | MIC Streptococcus agalactiae (GC 4564) [4, 13]: 16 µg/mL (≈ 9.9 µM) | MIC Streptococcus pneumoniae (ATCC 6301) [4, 13]: 4 µg/mL (≈ 2.48 µM) | MIC Streptococcus pneumoniae (GC 1894) [4, 13]: 8 µg/mL (≈ 4.95 µM) | MIC Streptococcus pneumoniae (GC 4565) [4, 13]: 8 µg/mL (≈ 4.95 µM) | MIC Streptococcus pyogenes (GC 4563) [4, 13]: 16 µg/mL (≈ 9.9 µM)
